Results reported in ChEMBL document CHEMBL1152164, “The first X-ray crystal structure of the glucocorticoid receptor bound to a non-steroidal agonist” (Bioorg Med Chem Lett, 2008).

How the values were obtained:
[1] = molecular target: T1, Glucocorticoid receptor (Homo sapiens, UniProt P04150); assay: Agonist activity at glucocorticoid receptor by MMTV transactivation assay; assay type: functional
T1 sequence (P04150 whole entry): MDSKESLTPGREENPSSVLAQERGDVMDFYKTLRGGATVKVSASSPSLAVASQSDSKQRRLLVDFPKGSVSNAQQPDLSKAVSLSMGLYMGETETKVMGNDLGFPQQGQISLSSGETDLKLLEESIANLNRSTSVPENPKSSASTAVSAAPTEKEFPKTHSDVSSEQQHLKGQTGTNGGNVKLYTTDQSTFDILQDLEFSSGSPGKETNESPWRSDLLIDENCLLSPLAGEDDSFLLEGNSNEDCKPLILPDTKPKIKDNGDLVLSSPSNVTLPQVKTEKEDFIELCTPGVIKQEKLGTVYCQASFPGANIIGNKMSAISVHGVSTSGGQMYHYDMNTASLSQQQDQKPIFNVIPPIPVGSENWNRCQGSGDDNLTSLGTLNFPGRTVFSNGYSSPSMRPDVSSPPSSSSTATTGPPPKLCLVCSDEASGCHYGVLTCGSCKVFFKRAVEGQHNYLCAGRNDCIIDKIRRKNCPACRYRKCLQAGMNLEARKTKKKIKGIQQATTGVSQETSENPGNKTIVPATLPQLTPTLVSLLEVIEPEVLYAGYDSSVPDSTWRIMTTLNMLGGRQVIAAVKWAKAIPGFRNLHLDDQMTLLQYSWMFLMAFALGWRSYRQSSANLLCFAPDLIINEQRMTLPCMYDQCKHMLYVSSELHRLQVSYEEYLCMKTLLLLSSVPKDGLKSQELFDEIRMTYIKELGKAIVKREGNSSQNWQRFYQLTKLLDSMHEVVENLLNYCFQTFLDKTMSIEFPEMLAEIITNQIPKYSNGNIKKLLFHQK

[2] = molecular target: T1, Glucocorticoid receptor; assay: Binding affinity to glucocorticoid receptor
[3] = molecular target: T2, Mineralocorticoid receptor (Homo sapiens, UniProt P08235); assay: Binding affinity to mineralocorticoid receptor
T2 sequence (P08235 whole entry): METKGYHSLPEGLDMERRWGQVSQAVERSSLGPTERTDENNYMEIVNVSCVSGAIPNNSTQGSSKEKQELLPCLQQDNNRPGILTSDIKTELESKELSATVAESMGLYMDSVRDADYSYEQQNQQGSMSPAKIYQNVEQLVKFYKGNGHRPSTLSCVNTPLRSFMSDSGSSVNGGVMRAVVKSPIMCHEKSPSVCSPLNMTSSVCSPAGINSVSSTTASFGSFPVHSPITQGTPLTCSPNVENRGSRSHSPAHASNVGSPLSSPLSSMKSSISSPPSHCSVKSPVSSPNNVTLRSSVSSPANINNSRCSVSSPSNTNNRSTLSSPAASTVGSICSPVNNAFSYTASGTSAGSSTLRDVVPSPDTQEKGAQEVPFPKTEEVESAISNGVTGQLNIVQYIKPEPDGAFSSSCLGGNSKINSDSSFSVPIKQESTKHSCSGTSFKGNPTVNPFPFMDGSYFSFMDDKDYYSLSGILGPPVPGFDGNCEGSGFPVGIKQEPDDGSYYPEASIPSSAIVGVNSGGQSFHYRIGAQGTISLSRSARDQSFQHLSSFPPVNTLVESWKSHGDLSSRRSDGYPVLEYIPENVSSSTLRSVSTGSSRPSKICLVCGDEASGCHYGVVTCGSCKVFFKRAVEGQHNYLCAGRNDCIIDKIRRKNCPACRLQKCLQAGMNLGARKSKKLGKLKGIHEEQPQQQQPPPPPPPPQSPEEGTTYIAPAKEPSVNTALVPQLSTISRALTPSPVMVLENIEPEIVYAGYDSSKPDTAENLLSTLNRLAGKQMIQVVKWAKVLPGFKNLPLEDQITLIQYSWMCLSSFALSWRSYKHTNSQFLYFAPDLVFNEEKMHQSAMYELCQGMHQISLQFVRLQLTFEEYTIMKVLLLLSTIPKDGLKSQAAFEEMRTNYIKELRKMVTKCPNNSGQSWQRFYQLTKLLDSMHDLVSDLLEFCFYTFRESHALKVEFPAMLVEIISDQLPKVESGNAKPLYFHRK

[4] = molecular target: T3, Progesterone receptor (Homo sapiens, UniProt P06401); assay: Binding affinity to progesterone receptor
T3 sequence (P06401 whole entry): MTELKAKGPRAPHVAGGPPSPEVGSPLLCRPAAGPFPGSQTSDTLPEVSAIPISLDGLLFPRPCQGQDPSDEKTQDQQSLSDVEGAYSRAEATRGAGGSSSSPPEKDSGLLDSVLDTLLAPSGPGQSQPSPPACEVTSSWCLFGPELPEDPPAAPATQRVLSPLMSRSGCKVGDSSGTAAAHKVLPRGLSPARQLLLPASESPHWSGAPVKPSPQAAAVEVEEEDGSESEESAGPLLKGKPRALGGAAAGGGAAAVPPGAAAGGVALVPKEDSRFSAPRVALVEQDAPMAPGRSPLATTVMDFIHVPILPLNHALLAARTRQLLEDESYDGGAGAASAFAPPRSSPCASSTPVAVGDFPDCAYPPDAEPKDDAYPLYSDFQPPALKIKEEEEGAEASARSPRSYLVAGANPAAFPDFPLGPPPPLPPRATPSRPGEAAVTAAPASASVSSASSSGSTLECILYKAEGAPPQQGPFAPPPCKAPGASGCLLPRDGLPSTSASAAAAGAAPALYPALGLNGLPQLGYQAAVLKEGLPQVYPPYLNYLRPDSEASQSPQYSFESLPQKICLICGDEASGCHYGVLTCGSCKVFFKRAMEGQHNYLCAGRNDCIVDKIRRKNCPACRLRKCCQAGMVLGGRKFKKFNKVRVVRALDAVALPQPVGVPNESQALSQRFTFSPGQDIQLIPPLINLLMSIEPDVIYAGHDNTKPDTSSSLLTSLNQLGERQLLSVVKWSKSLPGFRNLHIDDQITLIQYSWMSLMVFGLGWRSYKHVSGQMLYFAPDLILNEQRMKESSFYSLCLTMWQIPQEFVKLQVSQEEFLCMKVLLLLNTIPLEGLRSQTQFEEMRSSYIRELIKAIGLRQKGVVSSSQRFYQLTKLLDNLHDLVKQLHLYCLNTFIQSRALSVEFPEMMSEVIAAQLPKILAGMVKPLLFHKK

[5] = molecular target: T4, Androgen receptor (Homo sapiens, UniProt P10275); assay: Binding affinity to androgen receptor
T4 sequence (P10275 whole entry): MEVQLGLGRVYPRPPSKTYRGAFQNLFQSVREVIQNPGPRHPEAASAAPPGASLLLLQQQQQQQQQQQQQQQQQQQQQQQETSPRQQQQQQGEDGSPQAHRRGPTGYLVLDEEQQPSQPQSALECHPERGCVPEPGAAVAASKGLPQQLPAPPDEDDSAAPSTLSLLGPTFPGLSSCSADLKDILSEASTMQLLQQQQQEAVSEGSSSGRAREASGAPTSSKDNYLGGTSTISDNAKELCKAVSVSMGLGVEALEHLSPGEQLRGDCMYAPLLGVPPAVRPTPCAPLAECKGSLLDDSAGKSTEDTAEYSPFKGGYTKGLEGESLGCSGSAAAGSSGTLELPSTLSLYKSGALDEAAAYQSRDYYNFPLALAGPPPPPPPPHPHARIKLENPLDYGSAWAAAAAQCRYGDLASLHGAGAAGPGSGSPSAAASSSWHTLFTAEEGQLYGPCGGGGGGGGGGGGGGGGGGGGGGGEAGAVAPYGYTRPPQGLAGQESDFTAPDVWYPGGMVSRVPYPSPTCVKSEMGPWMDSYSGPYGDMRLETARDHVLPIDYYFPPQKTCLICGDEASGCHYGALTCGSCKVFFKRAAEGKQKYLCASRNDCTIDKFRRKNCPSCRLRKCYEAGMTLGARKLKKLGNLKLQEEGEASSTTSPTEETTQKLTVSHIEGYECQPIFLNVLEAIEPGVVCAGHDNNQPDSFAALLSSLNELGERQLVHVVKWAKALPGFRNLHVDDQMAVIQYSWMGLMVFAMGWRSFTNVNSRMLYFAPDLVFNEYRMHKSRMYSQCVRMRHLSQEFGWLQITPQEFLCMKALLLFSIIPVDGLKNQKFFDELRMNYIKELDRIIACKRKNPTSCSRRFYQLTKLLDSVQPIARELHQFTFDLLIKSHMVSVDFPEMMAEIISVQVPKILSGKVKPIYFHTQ

- EC50 [1]: 2 nM
- IC50 [2]: 3.16 nM
- EC50 [3]: > 10000 nM
- EC50 [4]: > 10000 nM
- EC50 [5]: > 10000 nM
SMILES: CCN(C[C@](O)(CNC(=O)c1cnn(-c2ccc(F)cc2)c1N)C(F)(F)F)C(=O)c1c(Cl)cccc1Cl
